Data: paper PMC8330742, “New benzothieno[2,3-c]pyridines as non-steroidal CYP17 inhibitors: design, synthesis, anticancer screening, apoptosis induction, and in silico ADME profile studies” (Journal of Enzyme Inhibition and Medicinal Chemistry, 2021)

Experiments:
MDA-MB-435 = experiment: NCI-60 SRB screen; type: cell-based; settings: Homo sapiens, MDA-MB-435, read-out: Growth inhibition (%)
CCRF-CEM = experiment: NCI-60 SRB screen; type: cell-based; settings: Homo sapiens, single dose 10^−5 M, read-out: Growth inhibition (%)
KM12 = experiment: NCI-60 SRB screen; type: cell-based, human; settings: Homo sapiens; KM12; single dose 10^−5 M; read-out: Growth inhibition (%)
ACHN = experiment: NCI-60 SRB screen; type: cell-based; settings: Homo sapiens, single dose 10^−5 M, read-out: Growth inhibition (%)
HCC-2998 = experiment: NCI-60 SRB screen; type: cell-based, human; settings: Homo sapiens; HCC-2998; single dose 10^−5 M; read-out: Growth inhibition (%)
UO-31 = experiment: NCI-60 SRB screen; type: cell-based, human; settings: Homo sapiens; UO-31; single dose 10^−5 M; read-out: Growth inhibition (%)
SW-620 = experiment: NCI-60 SRB screen; type: cell-based; settings: Homo sapiens; SW-620; single dose 10^−5 M; read-out: Growth inhibition (%)
HOP-62 = experiment: NCI-60 SRB screen; type: cell-based, human; settings: Homo sapiens; HOP-62; single dose 10^−5 M; read-out: Growth inhibition (%)
NCI-H23 = experiment: NCI-60 SRB screen; type: cell-based, human; settings: Homo sapiens; NCI-H23; single dose 10^−5 M; read-out: Growth inhibition (%)
NCI-H522 = experiment: NCI-60 SRB screen; type: cell-based, human; settings: Homo sapiens; NCI-H522; single dose 10^−5 M; read-out: Growth inhibition (%)
TK-10 = experiment: NCI-60 SRB screen; type: cell-based, human; settings: Homo sapiens; TK-10; single dose 10^−5 M; read-out: Growth inhibition (%)
M14 = experiment: NCI-60 SRB screen; type: cell-based, human; settings: Homo sapiens; M14; single dose 10^−5 M; read-out: Growth inhibition (%)
NCI/ADR-RES = experiment: NCI-60 SRB screen; type: cell-based, human; settings: Homo sapiens, single dose 10^−5 M, read-out: Growth inhibition (%)
OVCAR-4 = experiment: NCI-60 SRB screen; type: cell-based, human; settings: Homo sapiens; OVCAR-4; single dose 10^−5 M; read-out: Growth inhibition (%)
OVCAR-8 = experiment: NCI-60 SRB screen; type: cell-based, human; settings: Homo sapiens; OVCAR-8; single dose 10^−5 M; read-out: Growth inhibition (%)
K-562 = experiment: NCI-60 SRB screen; type: cell-based, human; settings: Homo sapiens, K562; K-562; single dose 10^−5 M; read-out: Growth inhibition (%)
A549/ATCC = experiment: NCI-60 SRB screen; type: cell-based, human; settings: Homo sapiens, single dose 10^−5 M, read-out: Growth inhibition (%)
NCI-H460 = experiment: NCI-60 SRB screen; type: cell-based, human; settings: Homo sapiens; NCI-H460; single dose 10^−5 M; read-out: Growth inhibition (%)
CAKI-1 = experiment: NCI-60 SRB screen; type: cell-based, human; settings: Homo sapiens; CAKI-1; single dose 10^−5 M; read-out: Growth inhibition (%)
LOX IMVI = experiment: NCI-60 SRB screen; type: cell-based, human; settings: Homo sapiens, single dose 10^−5 M, read-out: Growth inhibition (%)
SK-MEL-28 = experiment: NCI-60 SRB screen; type: cell-based; settings: Homo sapiens; SK-MEL-28; single dose 10^−5 M; read-out: Growth inhibition (%)
COLO 205 = experiment: NCI-60 SRB screen; type: cell-based, human; settings: Homo sapiens; COLO 205; single dose 10^−5 M; read-out: Growth inhibition (%)
EKVX = experiment: NCI-60 SRB screen; type: cell-based, human; settings: Homo sapiens, single dose 10^−5 M, read-out: Growth inhibition (%)
SK-MEL-5 = experiment: NCI-60 SRB screen; type: cell-based, human; settings: Homo sapiens; SK-MEL-5; single dose 10^−5 M; read-out: Growth inhibition (%)
HL-60(TB) = experiment: NCI-60 SRB screen; type: cell-based, human; settings: Homo sapiens; HL-60 (TB); single dose 10^−5 M; read-out: Growth inhibition (%)
NCI-H226 = experiment: NCI-60 SRB screen; type: cell-based, human; settings: Homo sapiens; NCI-H226; single dose 10^−5 M; read-out: Growth inhibition (%)
RXF 393 = experiment: NCI-60 SRB screen; type: cell-based, human; settings: Homo sapiens; RXF 393; single dose 10^−5 M; read-out: Growth inhibition (%)
UACC-62 = experiment: NCI-60 SRB screen; type: cell-based, human; settings: Homo sapiens; UACC-62; single dose 10^−5 M; read-out: Growth inhibition (%)
MALME-3M = experiment: NCI-60 SRB screen; type: cell-based, human; settings: Homo sapiens, single dose 10^−5 M, read-out: Growth inhibition (%)
SN12C = experiment: NCI-60 SRB screen; type: cell-based, human; settings: Homo sapiens, SN12C; SN 12 C; single dose 10^−5 M; read-out: Growth inhibition (%)
NCI-H322M = experiment: NCI-60 SRB screen; type: cell-based, human; settings: Homo sapiens, single dose 10^−5 M, read-out: Growth inhibition (%)
IGROV1 = experiment: NCI-60 SRB screen; type: cell-based, human; settings: Homo sapiens, IGROV-1; IGROV1; single dose 10^−5 M; read-out: Growth inhibition (%)
SF-295 = experiment: NCI-60 SRB screen; type: cell-based, human; settings: Homo sapiens; SF-295; single dose 10^−5 M; read-out: Growth inhibition (%)
OVCAR-3 = experiment: NCI-60 SRB screen; type: cell-based, human; settings: Homo sapiens; OVCAR-3; single dose 10^−5 M; read-out: Growth inhibition (%)
[1] = system: panel of 60 cancer cell lines; experiment: NCI-60 SRB screen, mean or range over the panel; type: cell-based, human; settings: Homo sapiens; mean over the cell lines; single dose 10^−5 M; read-out: Mean growth inhibition (%)
HT-29 = experiment: NCI-60 SRB screen; type: cell-based; settings: Homo sapiens; HT-29; single dose 10^−5 M; read-out: Growth inhibition (%)
SR = experiment: NCI-60 SRB screen; type: cell-based; settings: Homo sapiens, single dose 10^−5 M, read-out: Growth inhibition (%)
MOLT-4 = experiment: NCI-60 SRB screen; type: cell-based; settings: Homo sapiens; MOLT-4; single dose 10^−5 M; read-out: Growth inhibition (%)
HCT-15 = experiment: NCI-60 SRB screen; type: cell-based, human; settings: Homo sapiens; HCT-15; single dose 10^−5 M; read-out: Growth inhibition (%)
SK-OV-3 = experiment: NCI-60 SRB screen; type: cell-based, human; settings: Homo sapiens; SK-OV-3; single dose 10^−5 M; read-out: Growth inhibition (%)
HOP-92 = experiment: NCI-60 SRB screen; type: cell-based, human; settings: Homo sapiens; HOP-92; single dose 10^−5 M; read-out: Growth inhibition (%)
SK-MEL-2 = experiment: NCI-60 SRB screen; type: cell-based, human; settings: Homo sapiens; SK-MEL-2; single dose 10^−5 M; read-out: Growth inhibition (%)
SF-268 = experiment: NCI-60 SRB screen; type: cell-based, human; settings: Homo sapiens; SF-268; single dose 10^−5 M; read-out: Growth inhibition (%)
HCT-116 = experiment: NCI-60 SRB screen; type: cell-based, human; settings: Homo sapiens; HCT-116; single dose 10^−5 M; read-out: Growth inhibition (%)

Work on COc1ccc(C2NC(=O)C(Cl)c3c2sc2c(F)cccc32)cc1 (stereo not shown) [Compound 4b, 4-Chloro-8-fluoro-1-(4-methoxyphenyl)-1,2-dihydro[1]benzothieno[2,3-c] pyridine-3(4H)-one] yielded an inhibition at 10 µM (MDA-MB-435) of 33.7%, an inhibition at 10 µM (CCRF-CEM) of -0.42% and an inhibition at 10 µM (KM12) of 7.6%. The inhibition at 10 µM (ACHN) was -3.2%, the inhibition at 10 µM (HCC-2998) was -6.39% and the inhibition at 10 µM (UO-31) was 71.7%. It also gave an inhibition at 10 µM (SW-620) of 6.49%, an inhibition at 10 µM (HOP-62) of 17.2% and an inhibition at 10 µM (NCI-H23) of 6.41%. For the same molecule, the inhibition at 10 µM (NCI-H522) was 21.7%, the inhibition at 10 µM (TK-10) was -38.1% and the inhibition at 10 µM (M14) was 3.86%. For the same molecule, the inhibition at 10 µM (NCI/ADR-RES) was 9.18%, the inhibition at 10 µM (OVCAR-4) was 7.51% and the inhibition at 10 µM (OVCAR-8) was 2.95%. It also gave an inhibition at 10 µM (K-562) of 31.3%, an inhibition at 10 µM (A549/ATCC) of 55.5% and an inhibition at 10 µM (NCI-H460) of 31.4%. The inhibition at 10 µM (CAKI-1) was 17.7%, the inhibition at 10 µM (LOX IMVI) was 6.46% and the inhibition at 10 µM (SK-MEL-28) was -0.07%. For the same molecule, the inhibition at 10 µM (COLO 205) was -20.5%, the inhibition at 10 µM (EKVX) was 23% and the inhibition at 10 µM (SK-MEL-5) was -0.07%. It also gave an inhibition at 10 µM (HL-60(TB)) of -5.26%, an inhibition at 10 µM (NCI-H226) of 7.14% and an inhibition at 10 µM (RXF 393) of 9.68%. For the same molecule, the inhibition at 10 µM (UACC-62) was 8.74%, the inhibition at 10 µM (MALME-3M) was 10.8% and the inhibition at 10 µM (SN12C) was 3.66%. For the same molecule, the inhibition at 10 µM (NCI-H322M) was 22%, the inhibition at 10 µM (IGROV1) was 4.86% and the inhibition at 10 µM (SF-295) was 1.82%. It also gave an inhibition at 10 µM (OVCAR-3) of 0.61%, an inhibition at 10 µM [1] of 8.66% and an inhibition at 10 µM (HT-29) of -6.98%. For the same molecule, the inhibition at 10 µM (SR) was 39.3%, the inhibition at 10 µM (MOLT-4) was 7.88% and the inhibition at 10 µM (HCT-15) was 14.2%. For the same molecule, the inhibition at 10 µM (SK-OV-3) was -2.04%, the inhibition at 10 µM (HOP-92) was 16.4% and the inhibition at 10 µM (SK-MEL-2) was -18.3%. For the same molecule, the inhibition at 10 µM (SF-268) was 14.3% and the inhibition at 10 µM (HCT-116) was 1.62%.

O=C1NC(c2ccccc2[N+](=O)[O-])c2sc3c(F)cccc3c2C1Cl (stereo not shown) [Compound 4c, 4-Chloro-8-fluoro-1-(2-nitrophenyl)-1,2-dihydro[1]benzothieno[2,3-c] pyridine-3(4H)-one] showed an inhibition at 10 µM (MDA-MB-435) of -7.17%, an inhibition at 10 µM (CCRF-CEM) of -0.04% and an inhibition at 10 µM (KM12) of -0.66%. It also gave an inhibition at 10 µM (ACHN) of -4.45%, an inhibition at 10 µM (HCC-2998) of -27.4% and an inhibition at 10 µM (UO-31) of 33.2%. It also gave an inhibition at 10 µM (SW-620) of 2.43%, an inhibition at 10 µM (HOP-62) of 3.32% and an inhibition at 10 µM (NCI-H23) of 6.95%. For the same molecule, the inhibition at 10 µM (NCI-H522) was 7.95%, the inhibition at 10 µM (TK-10) was -52% and the inhibition at 10 µM (M14) was 1.7%. It also gave an inhibition at 10 µM (NCI/ADR-RES) of -1.98%, an inhibition at 10 µM (OVCAR-4) of 11.1% and an inhibition at 10 µM (OVCAR-8) of 1.73%. It also gave an inhibition at 10 µM (K-562) of 33.5%, an inhibition at 10 µM (A549/ATCC) of 3.15% and an inhibition at 10 µM (NCI-H460) of 17.2%. For the same molecule, the inhibition at 10 µM (CAKI-1) was 12.4%, the inhibition at 10 µM (LOX IMVI) was 8.72% and the inhibition at 10 µM (SK-MEL-28) was 8.45%. The inhibition at 10 µM (COLO 205) was -21.6%, the inhibition at 10 µM (EKVX) was 11.8% and the inhibition at 10 µM (SK-MEL-5) was 8.45%. For the same molecule, the inhibition at 10 µM (HL-60(TB)) was -5.53%, the inhibition at 10 µM (NCI-H226) was 18.5% and the inhibition at 10 µM (RXF 393) was -17.3%. It also gave an inhibition at 10 µM (UACC-62) of 20.8%, an inhibition at 10 µM (MALME-3M) of 9.46% and an inhibition at 10 µM (SN12C) of 4.76%. For the same molecule, the inhibition at 10 µM (NCI-H322M) was -4.23%, the inhibition at 10 µM (IGROV1) was 33% and the inhibition at 10 µM (SF-295) was -7.26%. For the same molecule, the inhibition at 10 µM (OVCAR-3) was 7.25%, the inhibition at 10 µM [1] was 3% and the inhibition at 10 µM (HT-29) was -9.93%. For the same molecule, the inhibition at 10 µM (SR) was 0.2%, the inhibition at 10 µM (MOLT-4) was 11.8% and the inhibition at 10 µM (HCT-15) was -1.51%. For the same molecule, the inhibition at 10 µM (SK-OV-3) was -9.85%, the inhibition at 10 µM (HOP-92) was -11.2% and the inhibition at 10 µM (SK-MEL-2) was -16.7%. It also gave an inhibition at 10 µM (SF-268) of 10.5% and an inhibition at 10 µM (HCT-116) of 11.4%.
